From patent US20040156869A1, “2-substituted quinazolin-4-ylamine analogues” (Neurogen Corporation, priority 2002, published 2004)

Target: human capsaicin receptor (VR1) (Homo sapiens, UniProt Q8NER1)
Assay: Capsaicin receptor binding assay ([3H]RTX competition, VR1-transfected HEK293 membranes)

Chain of human capsaicin receptor (VR1) (Q8NER1 whole entry): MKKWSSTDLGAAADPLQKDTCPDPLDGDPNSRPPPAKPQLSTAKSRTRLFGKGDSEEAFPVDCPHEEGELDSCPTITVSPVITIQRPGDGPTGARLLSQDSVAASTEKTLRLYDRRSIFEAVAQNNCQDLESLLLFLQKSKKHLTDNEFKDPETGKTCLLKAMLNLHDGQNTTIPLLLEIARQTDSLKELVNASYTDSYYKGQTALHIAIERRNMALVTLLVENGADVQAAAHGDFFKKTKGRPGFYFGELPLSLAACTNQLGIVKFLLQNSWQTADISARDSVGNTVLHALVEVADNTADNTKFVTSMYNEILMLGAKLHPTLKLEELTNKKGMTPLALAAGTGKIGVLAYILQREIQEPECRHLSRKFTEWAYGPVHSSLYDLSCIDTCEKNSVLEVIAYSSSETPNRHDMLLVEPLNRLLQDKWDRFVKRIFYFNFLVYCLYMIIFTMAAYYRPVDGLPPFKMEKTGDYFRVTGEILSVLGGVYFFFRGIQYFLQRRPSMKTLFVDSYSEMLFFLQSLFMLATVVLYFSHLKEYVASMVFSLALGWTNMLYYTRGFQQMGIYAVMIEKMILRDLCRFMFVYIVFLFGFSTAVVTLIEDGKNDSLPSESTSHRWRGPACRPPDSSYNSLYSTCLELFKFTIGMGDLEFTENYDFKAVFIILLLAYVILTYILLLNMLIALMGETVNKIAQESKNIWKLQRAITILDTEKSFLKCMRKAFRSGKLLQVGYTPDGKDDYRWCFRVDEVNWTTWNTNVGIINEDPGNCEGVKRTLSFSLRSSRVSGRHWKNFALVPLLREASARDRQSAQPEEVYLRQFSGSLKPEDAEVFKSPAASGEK

| Ki [nM] | SMILES |
| --- | --- |
| < 1000 | CC1CCN(CCc2nc(Nc3ccc(C(F)(F)F)cc3)c3ccc(-c4ncccc4C(F)(F)F)cc3n2)CC(C)(C)C1 (stereo not drawn) [Compound 406, (4-Trifluoromethyl-phenyl)-{7-(3-trifluoromethyl-pyridin-2-yl)-2-[2-(3,3,5-trimethyl-azepan-1-yl)-ethyl]-quinazolin-4-yl}-amine] |
| < 1000 | FC(F)(F)c1ccc(Nc2nc(CCN3CCC4(CC3)OCCO4)nc3cc(-c4ncccc4C(F)(F)F)ccc23)cc1 [Compound 407, [2-[2-(1,4-Dioxa-8-aza-spiro[4.5]dec-8-yl)-ethyl]-7-(3-trifluoromethyl-pyridin-2-yl)-quinazolin-4-yl]-(4-trifluoromethyl-phenyl)-amine] |
| < 1000 | FC(F)(F)c1ccc(Nc2nc(CCN3CCCC4CCCCC43)nc3cc(-c4ncccc4C(F)(F)F)ccc23)cc1 (stereo not drawn) [Compound 408, [2-(Octahydro-quinolin-1-ylethyl)-7-(3-trifluoromethyl-pyridin-2-yl)-quinazolin-4-yl]-(4-trifluoromethyl-phenyl)-amine] |
| < 1000 | CN(C)CCc1nc(Nc2ccc(C(F)(F)F)cc2)c2ccc(-c3ncccc3C(F)(F)F)cc2n1 [Compound 409, [2-Dimethylaminoethyl-7-(3-trifluoromethyl-pyridin-2-yl)-quinazolin-4-yl]-(4-trifluoromethyl-phenyl)-amine] |
| < 1000 | C=CCN(C)CCc1nc(Nc2ccc(C(F)(F)F)cc2)c2ccc(-c3ncccc3C(F)(F)F)cc2n1 [Compound 410, [2-[(Allyl-methyl-amino)-ethyl]-7-(3-trifluoromethyl-pyridin-2-yl)-quinazolin-4-yl]-(4-trifluoromethyl-phenyl)-amine] |
| < 1000 | CCN(CC)CCc1nc(Nc2ccc(C(F)(F)F)cc2)c2ccc(-c3ncccc3C(F)(F)F)cc2n1 [Compound 411, [2-Diethylaminoethyl-7-(3-trifluoromethyl-pyridin-2-yl)-quinazolin-4-yl]-(4-trifluoromethyl-phenyl)-amine] |
| < 1000 | CCCN(C)CCc1nc(Nc2ccc(C(F)(F)F)cc2)c2ccc(-c3ncccc3C(F)(F)F)cc2n1 [Compound 412, [2-[(Propyl-methyl-amino)-ethyl]-7-(3-trifluoromethyl-pyridin-2-yl)-quinazolin-4-yl]-(4-trifluoromethyl-phenyl)-amine] |
| < 1000 | CCCCN(C)CCc1nc(Nc2ccc(C(F)(F)F)cc2)c2ccc(-c3ncccc3C(F)(F)F)cc2n1 [Compound 413, [2-[(Butyl-methyl-amino)-ethyl]-7-(3-trifluoromethyl-pyridin-2-yl)-quinazolin-4-yl]-(4-trifluoromethyl-phenyl)-amine] |
| < 1000 | CCN(CCc1nc(Nc2ccc(C(F)(F)F)cc2)c2ccc(-c3ncccc3C(F)(F)F)cc2n1)C(C)C [Compound 414, [2-[(Isopropyl-ethyl-amino)-ethyl]-7-(3-trifluoromethyl-pyridin-2-yl)-quinazolin-4-yl]-(4-trifluoromethyl-phenyl)-amine] |
| < 1000 | C=CCN(CC=C)CCc1nc(Nc2ccc(C(F)(F)F)cc2)c2ccc(-c3ncccc3C(F)(F)F)cc2n1 [Compound 415, [2-Diallylaminoethyl-7-(3-trifluoromethyl-pyridin-2-yl)-quinazolin-4-yl]-(4-trifluoromethyl-phenyl)-amine] |
| < 1000 | CCCN(CCC)CCc1nc(Nc2ccc(C(F)(F)F)cc2)c2ccc(-c3ncccc3C(F)(F)F)cc2n1 [Compound 416, [2-Dipropylaminoethyl-7-(3-trifluoromethyl-pyridin-2-yl)-quinazolin-4-yl]-(4-trifluoromethyl-phenyl)-amine] |
| < 1000 | CCCCN(CC)CCc1nc(Nc2ccc(C(F)(F)F)cc2)c2ccc(-c3ncccc3C(F)(F)F)cc2n1 [Compound 417, [2-[(Butyl-ethyl-amino)-ethyl]-7-(3-trifluoromethyl-pyridin-2-yl)-quinazolin-4-yl]-(4-trifluoromethyl-phenyl)-amine] |
| < 1000 | CCCN(CCc1nc(Nc2ccc(C(F)(F)F)cc2)c2ccc(-c3ncccc3C(F)(F)F)cc2n1)CC1CC1 [Compound 418, [2-[(Cyclopropylmethyl-propyl-amino)-ethyl]-7-(3-trifluoromethyl-pyridin-2-yl)-quinazolin-4-yl]-(4-trifluoromethyl-phenyl)-amine] |
| < 1000 | CCCCCCN(C)CCc1nc(Nc2ccc(C(F)(F)F)cc2)c2ccc(-c3ncccc3C(F)(F)F)cc2n1 [Compound 419, [2-[(Hexyl-methyl-amino)-ethyl]-7-(3-trifluoromethyl-pyridin-2-yl)-quinazolin-4-yl]-(4-trifluoromethyl-phenyl)-amine] |
| < 1000 | CCCCN(CCCC)CCc1nc(Nc2ccc(C(F)(F)F)cc2)c2ccc(-c3ncccc3C(F)(F)F)cc2n1 [Compound 420, [2-Dibutylaminoethyl-7-(3-trifluoromethyl-pyridin-2-yl)-quinazolin-4-yl]-(4-trifluoromethyl-phenyl)-amine] |
| < 1000 | CC(C)N(C)CCc1nc(Nc2ccc(C(F)(F)F)cc2)c2ccc(-c3ncccc3C(F)(F)F)cc2n1 [Compound 421, [2-[(Isopropyl-methyl-amino)-ethyl]-7-(3-trifluoromethyl-pyridin-2-yl)-quinazolin-4-yl]-(4-trifluoromethyl-phenyl)-amine] |
| < 1000 | CC1CCCCN1CCc1nc(Nc2ccc(C(F)(F)F)cc2)c2ccc(-c3ncccc3C(F)(F)F)cc2n1 (stereo not drawn) [Compound 422, [2-(2-Methyl-piperidin-1-ylethyl)-7-(3-trifluoromethyl-pyridin-2-yl)-quinazolin-4-yl]-(4-trifluoromethyl-phenyl)-amine] |
| < 1000 | C=C(C)CN(CC)CCc1nc(Nc2ccc(C(F)(F)F)cc2)c2ccc(-c3ncccc3C(F)(F)F)cc2n1 [Compound 423, [2-{2-[Ethyl-(2-methyl-allyl)-amino]-ethyl}-7-(3-trifluoromethyl-pyridin-2-yl)-quinazolin-4-yl]-(4-trifluoromethyl-phenyl)-amine] |
| < 1000 | CN(CCc1nc(Nc2ccc(C(F)(F)F)cc2)c2ccc(-c3ncccc3C(F)(F)F)cc2n1)C1CCCCC1 [Compound 424, [2-[(Cyclohexyl-methyl-amino)-ethyl]-7-(3-trifluoromethyl-pyridin-2-yl)-quinazolin-4-yl]-(4-trifluoromethyl-phenyl)-amine] |
| < 1000 | CCC1CCCCN1CCc1nc(Nc2ccc(C(F)(F)F)cc2)c2ccc(-c3ncccc3C(F)(F)F)cc2n1 (stereo not drawn) [Compound 425, [2-(2-Ethyl-piperidin-1-ylethyl)-7-(3-trifluoromethyl-pyridin-2-yl)-quinazolin-4-yl]-(4-trifluoromethyl-phenyl)-amine] |
| < 1000 | CCN(CCc1nc(Nc2ccc(C(F)(F)F)cc2)c2ccc(-c3ncccc3C(F)(F)F)cc2n1)C1CCCCC1 [Compound 426, [2-[(Cyclohexyl-ethyl-amino)-ethyl]-7-(3-trifluoromethyl-pyridin-2-yl)-quinazolin-4-yl]-(4-trifluoromethyl-phenyl)-amine] |
| < 1000 | COCCN(CCOC)CCc1nc(Nc2ccc(C(F)(F)F)cc2)c2ccc(-c3ncccc3C(F)(F)F)cc2n1 [Compound 427, [2-{2-[Bis-(2-methoxy-ethyl)-amino]-ethyl}-7-(3-trifluoromethyl-pyridin-2-yl)-quinazolin-4-yl]-(4-trifluoromethyl-phenyl)-amine] |
| < 1000 | CCCCCN(CCCCC)CCc1nc(Nc2ccc(C(F)(F)F)cc2)c2ccc(-c3ncccc3C(F)(F)F)cc2n1 [Compound 428, [2-Dipentylaminoethyl-7-(3-trifluoromethyl-pyridin-2-yl)-quinazolin-4-yl]-(4-trifluoromethyl-phenyl)-amine] |
| < 1000 | CCCCCCN(CCCCCC)CCc1nc(Nc2ccc(C(F)(F)F)cc2)c2ccc(-c3ncccc3C(F)(F)F)cc2n1 [Compound 429, [2-Dihexylaminoethyl-7-(3-trifluoromethyl-pyridin-2-yl)-quinazolin-4-yl]-(4-trifluoromethyl-phenyl)-amine] |
| < 1000 | CC1CC(C)CN(CCc2nc(Nc3ccc(C(F)(F)F)cc3)c3ccc(-c4ncccc4C(F)(F)F)cc3n2)C1 (stereo not drawn) [Compound 430, [2-(3,5-Dimethyl-piperidin-1-ylethyl)-7-(3-trifluoromethyl-pyridin-2-yl)-quinazolin-4-yl]-(4-trifluoromethyl-phenyl)-amine] |
| < 1000 | CCN1CCCC1CNC(=O)c1nc(Nc2ccc(C(F)(F)F)cc2)c2ccc(-c3ncccc3C(F)(F)F)nc2n1 (stereo not drawn) [Compound 431, 4-(4-Trifluoromethyl-phenylamino)-7-(3-trifluoromethyl-pyridin-2-yl)-pyrido[2,3-d]pyrimidine-2-carboxylic acid (1-ethyl-pyrrolidin-2-ylmethyl)-amide] |
| < 1000 | O=C(NCCCN1CCCC1)c1nc(Nc2ccc(C(F)(F)F)cc2)c2ccc(-c3ncccc3C(F)(F)F)nc2n1 [Compound 432, 4-(4-Trifluoromethyl-phenylamino)-7-(3-trifluoromethyl-pyridin-2-yl)-pyrido[2,3-d]pyrimidine-2-carboxylic acid (3-pyrrolidin-1-yl-propyl)-amide] |
| < 1000 | CN1CCN(CCCNC(=O)c2nc(Nc3ccc(C(F)(F)F)cc3)c3ccc(-c4ncccc4C(F)(F)F)nc3n2)CC1 [Compound 433, 4-(4-Trifluoromethyl-phenylamino)-7-(3-trifluoromethyl-pyridin-2-yl)-pyrido[2,3-d]pyrimidine-2-carboxylic acid [3-(4-methyl-piperazin-1-yl)-propyl]-amide] |
| < 1000 | CN(C)CC(C)(C)CNC(=O)c1nc(Nc2ccc(C(F)(F)F)cc2)c2ccc(-c3ncccc3C(F)(F)F)nc2n1 [Compound 434, 4-(4-Trifluoromethyl-phenylamino)-7-(3-trifluoromethyl-pyridin-2-yl)-pyrido[2,3-d]pyrimidine-2-carboxylic acid (3-dimethylamino-2,2-dimethyl-propyl)-amide] |
| < 1000 | CN(C)CCNC(=O)c1nc(Nc2ccc(C(F)(F)F)cc2)c2ccc(-c3ncccc3C(F)(F)F)nc2n1 [Compound 435, 4-(4-Trifluoromethyl-phenylamino)-7-(3-trifluoromethyl-pyridin-2-yl)-pyrido[2,3-d]pyrimidine-2-carboxylic acid (2-dimethylamino-ethyl)-amide] |
